Test results published in US11098288B2, “D-type amino acid dehydrogenase” (Kureha Corporation, priority 2017, dated 2021).

Experiments:
[1] = system: Five-mutation enzyme (five-mutation D-type amino acid dehydrogenase, SEQ ID NO: 14); test: D-amino acid synthesis activity (amination of 2-oxo acid), five-mutation enzyme; assay type: biochemical, Thermosyntropha lipolytica; details: 5 mM 2-oxoacid, 200 mM ammonium chloride, glycine buffer pH 9.5, 50° C.; for D-amino acid synthesis activity (specific activity), Five-mutation enzyme, NADH: NADH 0.1 mM; for D-amino acid synthesis activity (specific activity), Five-mutation enzyme, NADPH: NADPH 0.1 mM
Procedure: The PCR reaction solution was prepared so as to contain 0.3 μM of each of the following primers and 50 ng of the above-described template DNA.
After PCR, 2 μL of DpnI was added to the reaction solution and treated at 37° C. for 1 hour, and E. coli DH5α was transformed using the solution after treatment. Transformed cells were coated on an LB agar plate containing antibiotic ampicillin (final concentration 100 mg/L) and cultured at 37° C. for 16 hours. The generated colonies were harvested and cultured in LB liquid medium containing ampicillin overnight. The strains were collected from the culture solution by centrifugation, and five-mutation D-type amino acid dehydrogenase/pET100 was collected according to the manufacturer's protocol using AccuPrep Plasmid Mini Extraction Kit (BIONEER).
(§1) The activity of the enzyme was measured by determining a decrease in absorbance at wavelength of 340 nm of NADPH or NADH […] by the catalytic reaction of the enzyme and determining the enzymatic activity by the determined decrease in absorbance as an indicator. […] The absorbance was measured by an ultraviolet-visible spectrophotometer UV-1800 (available from SHIMADZU). […]

[2] = system: Wild type D-type amino acid dehydrogenase derived from T. lipolytica; test: D-amino acid synthesis activity (amination of 2-oxo acid), wild type enzyme; assay type: biochemical, Thermosyntropha lipolytica; details: 5 mM 2-oxoacid, 200 mM ammonium chloride, glycine buffer pH 9.5, 50° C.; for D-amino acid synthesis activity (specific activity), Wild type, NADH: NADH 0.1 mM; for D-amino acid synthesis activity (specific activity), Wild type, NADPH: NADPH 0.1 mM
Procedure: as §1

[3] = system: Six-mutation enzyme (Asp94Ser, Met154Leu, Val158Gly, Thr173Ile, Arg183Met, His229Asn; SEQ ID NO: 8); test: D-amino acid synthesis activity (amination of 2-oxo acid), six-mutation enzyme; assay type: biochemical, Thermosyntropha lipolytica; details: 5 mM 2-oxoacid, 200 mM ammonium chloride, glycine buffer pH 9.5, 50° C.; for D-amino acid synthesis activity (specific activity), Six-mutation enzyme, NADH: NADH 0.1 mM; for D-amino acid synthesis activity (specific activity), Six-mutation enzyme, NADPH: NADPH 0.1 mM
Procedure: Using this as a template, the gene of the enzyme was amplified by PCR using “PrimeSTAR Max DNA Polymerase” available from Takara Bio Inc. PCR was performed according to the manufacturer's instructions. The PCR reaction solution was prepared so as to contain 0.3 μM of each of the following primers and 50 ng of the above-described template DNA.
According to the manufacturer's protocol, the purified amplification product was incorporated into a pET100 vector (I available from Invitrogen) of a plasmid for protein expression to construct a six-mutation D-type amino acid dehydrogenase/pET100. The expression vector was constructed so as to incorporate a six-mutation D-type amino acid dehydrogenase gene derived from T. lipolytica downstream of the T7 promoter and […], and upstream of the T7 terminator.
as §1

[4] = target: D-type amino acid dehydrogenase derived from T. lipolytica (Thermosyntropha lipolytica, UniProt A0A1M5M5H3); test: Coenzyme dependence by activity-staining after disc gel electrophoresis; assay type: biochemical; details: 10 mM meso-diaminopimelic acid, 1.25 mM coenzyme, pH 8.0, 50° C., 30 minutes
Procedure: The coenzyme dependence of the enzyme was evaluated by an activity-staining method due to an enzymatic catalytic reaction. More specifically, an appropriate amount of enzyme solution was subjected to disc gel electrophoresis. […] A reaction formula is indicated below. In the following reaction formula, the D-type amino acid dehydrogenase is referred to as “meso-DAPDH”.

[5] = substrate: N[C@H](CCC[C@H](N)C(=O)O)C(=O)O; test: purified protein, by the assay type; details: other: meso-diaminopimelic acid as substrate, 50° C., values for meso-diaminopimelic acid determined using NADP^+ as the coenzyme
[6] = substrate: NC(=O)c1ccc[n+]([C@@H]2O[C@H](COP(=O)([O-])OP(=O)(O)OC[C@H]3O[C@@H](n4cnc5c(N)ncnc54)[C@H](O)[C@@H]3O)[C@@H](O)[C@H]2O)c1; test: purified protein, by the assay type; assay type: biochemical, Thermosyntropha lipolytica; details: other: meso-diaminopimelic acid as substrate, 50° C., values for meso-diaminopimelic acid determined using NADP^+ as the coenzyme
Procedure: The absorbance was measured by an ultraviolet-visible spectrophotometer UV-1800 (available from SHIMADZU). The specific activity of the enzyme was calculated from the concentration of the enzyme used and enzyme dilution rate using the obtained absorbance change and the following equation.
A turnover number (kcat) as a reaction rate parameter, a Michaelis constant (Km) value, and catalytic efficiency (kcat/Km) were determined with Igor Pro ver. 3.14 (available from WaveMetrics) based on Michaelis-Menten equation after the initial velocities were plotted against different substrates and coenzyme concentrations.

CC(C)C(=O)C(=O)O [2-oxo-3-methylbutanoic acid/D-valine, 2-oxo-3-methylbutanoic acid]
D-amino acid synthesis activity (specific activity), Five-mutation enzyme, NADH [1]: 0.18 ± 0.00078 µmol/min/mg
D-amino acid synthesis activity (specific activity), Five-mutation enzyme, NADPH [1]: 0.11 ± 0.0034 µmol/min/mg
D-amino acid synthesis activity (specific activity), Wild type, NADH [2]: 0.43 ± 0.0026 µmol/min/mg
D-amino acid synthesis activity (specific activity), Wild type, NADPH [2]: 0.33 ± 0.0094 µmol/min/mg
D-amino acid synthesis activity (specific activity), Six-mutation enzyme, NADH [3]: 0.18 ± 0.00089 µmol/min/mg
D-amino acid synthesis activity (specific activity), Six-mutation enzyme, NADPH [3]: 0.058 ± 0.0027 µmol/min/mg

O=C(O)C(=O)Cc1ccccc1 [2-oxo-3-phenylpropanoic acid]
D-amino acid synthesis activity (specific activity), Five-mutation enzyme, NADH [1]: No Activity
D-amino acid synthesis activity (specific activity), Five-mutation enzyme, NADPH [1]: 0.068 ± 0.0039 µmol/min/mg
D-amino acid synthesis activity (specific activity), Wild type, NADH [2]: 0.020 ± 0.0053 µmol/min/mg
D-amino acid synthesis activity (specific activity), Wild type, NADPH [2]: No Activity
D-amino acid synthesis activity (specific activity), Six-mutation enzyme, NADH [3]: No Activity
D-amino acid synthesis activity (specific activity), Six-mutation enzyme, NADPH [3]: 0.036 ± 0.0037 µmol/min/mg

CSCCC(=O)C(=O)O [2-oxo-4-(methylthio) butanoic acid]
D-amino acid synthesis activity (specific activity), Five-mutation enzyme, NADH [1]: No Activity
D-amino acid synthesis activity (specific activity), Five-mutation enzyme, NADPH [1]: 0.18 ± 0.0022 µmol/min/mg
D-amino acid synthesis activity (specific activity), Wild type, NADH [2]: 0.0033 ± 0.0016 µmol/min/mg
D-amino acid synthesis activity (specific activity), Wild type, NADPH [2]: 0.059 ± 0.0065 µmol/min/mg
D-amino acid synthesis activity (specific activity), Six-mutation enzyme, NADH [3]: No Activity
D-amino acid synthesis activity (specific activity), Six-mutation enzyme, NADPH [3]: 0.089 ± 0.0038 µmol/min/mg

CC(C)CC(=O)C(=O)O [2-oxo-4-methylpentanoic acid/D-leucine, 2-oxo-4-methylpentanoic acid]
D-amino acid synthesis activity (specific activity), Five-mutation enzyme, NADH [1]: 0.11 ± 0.0027 µmol/min/mg
D-amino acid synthesis activity (specific activity), Five-mutation enzyme, NADPH [1]: 0.20 ± 0.0071 µmol/min/mg
D-amino acid synthesis activity (specific activity), Wild type, NADH [2]: 0.27 ± 0.0064 µmol/min/mg
D-amino acid synthesis activity (specific activity), Wild type, NADPH [2]: 0.061 ± 0.00082 µmol/min/mg
D-amino acid synthesis activity (specific activity), Six-mutation enzyme, NADH [3]: No Activity
D-amino acid synthesis activity (specific activity), Six-mutation enzyme, NADPH [3]: 0.11 ± 0.0013 µmol/min/mg

O=C(O)CC(=O)C(=O)O [2-oxobutanedioic acid/D-aspartic acid, 2-oxobutanedioic acid]
D-amino acid synthesis activity (specific activity), Five-mutation enzyme, NADH [1]: 0.14 ± 0.014 µmol/min/mg
D-amino acid synthesis activity (specific activity), Five-mutation enzyme, NADPH [1]: 0.60 ± 0.035 µmol/min/mg
D-amino acid synthesis activity (specific activity), Wild type, NADH [2]: 0.43 ± 0.015 µmol/min/mg
D-amino acid synthesis activity (specific activity), Wild type, NADPH [2]: 5.7 ± 0.60 µmol/min/mg
D-amino acid synthesis activity (specific activity), Six-mutation enzyme, NADH [3]: 0.12 ± 0.010 µmol/min/mg
D-amino acid synthesis activity (specific activity), Six-mutation enzyme, NADPH [3]: 0.32 ± 0.0082 µmol/min/mg

CCC(=O)C(=O)O [2-oxobutanoic acid/D-2-aminobutyric acid, 2-oxobutanoic acid]
D-amino acid synthesis activity (specific activity), Five-mutation enzyme, NADH [1]: 0.044 ± 0.0049 µmol/min/mg
D-amino acid synthesis activity (specific activity), Five-mutation enzyme, NADPH [1]: 0.13 ± 0.0020 µmol/min/mg
D-amino acid synthesis activity (specific activity), Wild type, NADH [2]: 0.13 ± 0.0041 µmol/min/mg
D-amino acid synthesis activity (specific activity), Wild type, NADPH [2]: 2.3 ± 0.030 µmol/min/mg
D-amino acid synthesis activity (specific activity), Six-mutation enzyme, NADH [3]: 0.032 ± 0.0023 µmol/min/mg
D-amino acid synthesis activity (specific activity), Six-mutation enzyme, NADPH [3]: 0.077 ± 0.0041 µmol/min/mg

O=C(O)CCC(=O)C(=O)O [2-oxoglutaric acid/D-glutamic acid, 2-oxoglutaric acid]
D-amino acid synthesis activity (specific activity), Five-mutation enzyme, NADH [1]: No Activity
D-amino acid synthesis activity (specific activity), Five-mutation enzyme, NADPH [1]: 0.039 ± 0.0073 µmol/min/mg
D-amino acid synthesis activity (specific activity), Wild type, NADH [2]: No Activity
D-amino acid synthesis activity (specific activity), Wild type, NADPH [2]: 0.27 ± 0.010 µmol/min/mg
D-amino acid synthesis activity (specific activity), Six-mutation enzyme, NADH [3]: No Activity
D-amino acid synthesis activity (specific activity), Six-mutation enzyme, NADPH [3]: 0.067 ± 0.0046 µmol/min/mg

CCCCCCC(=O)C(=O)O [2-oxooctanoic acid]
D-amino acid synthesis activity (specific activity), Five-mutation enzyme, NADH [1]: 0.017 ± 0.0027 µmol/min/mg
D-amino acid synthesis activity (specific activity), Five-mutation enzyme, NADPH [1]: 0.47 ± 0.012 µmol/min/mg
D-amino acid synthesis activity (specific activity), Wild type, NADH [2]: No Activity
D-amino acid synthesis activity (specific activity), Wild type, NADPH [2]: 0.101 ± 0.010 µmol/min/mg
D-amino acid synthesis activity (specific activity), Six-mutation enzyme, NADH [3]: 0.0098 ± 0.0047 µmol/min/mg
D-amino acid synthesis activity (specific activity), Six-mutation enzyme, NADPH [3]: 0.35 ± 0.0093 µmol/min/mg

CC(=O)C(=O)O [2-oxopropanoic acid/D-alanine, 2-oxopropanoic acid]
D-amino acid synthesis activity (specific activity), Five-mutation enzyme, NADH [1]: 0.0077 ± 0.0015 µmol/min/mg
D-amino acid synthesis activity (specific activity), Five-mutation enzyme, NADPH [1]: 0.071 ± 0.00074 µmol/min/mg
D-amino acid synthesis activity (specific activity), Wild type, NADH [2]: 0.49 ± 0.016 µmol/min/mg
D-amino acid synthesis activity (specific activity), Wild type, NADPH [2]: 5.3 ± 0.038 µmol/min/mg
D-amino acid synthesis activity (specific activity), Six-mutation enzyme, NADH [3]: 0.0053 ± 0.0036 µmol/min/mg
D-amino acid synthesis activity (specific activity), Six-mutation enzyme, NADPH [3]: 0.044 ± 0.0034 µmol/min/mg

NC(=O)c1ccc[n+]([C@@H]2O[C@H](COP(=O)([O-])OP(=O)(O)OC[C@H]3O[C@@H](n4cnc5c(N)ncnc54)[C@H](O)[C@@H]3O)[C@@H](O)[C@H]2O)c1 [NAD^+]
coenzyme utilization (activity-staining) [4]: utilized

NADP^+
coenzyme utilization (activity-staining) [4]: utilized

B1: D-type amino acid dehydrogenase derived from T. lipolytica (Thermosyntropha lipolytica DSM 11003) (protein)
chain: MGEKIRVAIVGYGNIGRYALDAIKAAPDMELAGVVRRSSSLGDKPAELADVPVVGSIKELTGVKVALLCTPTRSVPEYAREILALGINTVDSYDIHGQLADLRLELDKVAKEHNAVAVISAGWDPGTDSMVRCMFEFMAPKGITYTNFGPGMSMGHSVAVKAVKGVKNALSMTIPLGTGVHRRMVYVELEPGADFAQVEKAVKTDPYFVKDETHVIQVEDVDALIDMGHGVLMERKGVSGGTHNQLLSFSMRINNPALTAQIMVASARASVKQKPGAYTMIQIPIIDYMYGDPDEIIRQLV
Km [5]: 5.68 mM
kcat [5]: 73.7 s⁻¹
kcat/Km [5]: 13000 M⁻¹ s⁻¹
Km [6]: 14.8 mM
kcat [6]: 77.5 s⁻¹
kcat/Km [6]: 5220 M⁻¹ s⁻¹
